Data on 1 molecule can be found in US11471534B2, “Chitosan-pluronic complex and nano-carrier comprising same” (KOREA INSTITUTE OF CERAMIC ENGINEERING AND TECHNOLOGY, priority 2017, dated 2022).

Structures are written as SMILES.

This data set can be described thus: Distribution of model drug (Nile red) in skin, fluorescence microscope on cryo-sections. Format: in vitro ADME, human. The following applies: after the skin penetration experiment, 20 μm cryo-sections. On the procedure: After completing a skin penetration experiment of the drugs, skins were fixed in a […] neutral formalin solution for 12 hours or more to confirm how the drugs were distributed in the skins. After mixing the fixed skins with an OCT compound, allowing OCT compound-mixed skins to be frozen in liquid nitrogen of −20° C. or less, and cutting the frozen skins to a thickness of 20 μm through a cryo-section device (−25° C.), sampling was made by attaching the cut skins to glass. After washing samples with deionized water and observing distribution statuses of a model drug (Nile red) in the skins with a fluorescence microscope, observation results are illustrated in FIG. 10.

With `CCN(CC)c1ccc2nc3c4ccccc4c(=O)cc-3oc2c1` [Nile red], the “distribution of model drug (Nile red) in the skin” value is “collected in stratum corneum”.
